Measured values taken from ChEMBL document CHEMBL1151757, “Synthesis, radiosynthesis, and biological evaluation of fluorine-18-labeled 2beta-carbo(fluoroalkoxy)-3beta-(3'-((Z)-2-haloethenyl)phenyl)nortropanes: candidate radioligands for in vivo imaging of the serotonin transporter with positron emission tomography” (J Med Chem, 2008).

Tested on: not listed separately
Assay: Ratio of drug uptake in frontal lobe to cerebellum in anesthetized cynomolgus monkey after 35 mins postinjection
Type: ADME, organism-based, Macaca fascicularis
Settings: in vivo
Compound `O=C(OCC[18F])C1C2CCC(CC1c1cccc(/C=C\I)c1)N2` (configuration not stated) has a Ratio of 0.7.

Tested on: Thalamus
Assay: Drug uptake in anesthetized cynomolgus monkey brain thalamus after 155 mins postinjection
Type: ADME, organism-based, Macaca fascicularis
Set-up: unit not given here
Settings: in vivo
Compound `O=C(OCC[18F])C1C2CCC(CC1c1cccc(/C=C\I)c1)N2` (configuration not stated) has a Drug uptake of 3.03.

Tested on: not listed separately
Assay: Drug uptake in anesthetized cynomolgus monkey brain cerebellum after 65 mins postinjection
Type: ADME, organism-based, Macaca fascicularis
Settings: in vivo
Compound `O=C(OCC[18F])C1C2CCC(CC1c1cccc(/C=C\I)c1)N2` (configuration not stated) has a Drug uptake of 3.23.

Tested on: Pons
Assay: Drug uptake in anesthetized cynomolgus monkey brain pons after 75 mins postinjection
Type: ADME, organism-based, Macaca fascicularis
Settings: in vivo, 1.25 h
In the case of `O=C(OCC[18F])C1C2CCC(CC1c1cccc(/C=C\I)c1)N2` (configuration not stated), the Drug uptake is reported as 3.21.

Tested on: Medulla
Assay: Drug uptake in anesthetized cynomolgus monkey brain medulla after 105 mins postinjection
Type: ADME, organism-based, Macaca fascicularis
Settings: in vivo, 1.75 h
`O=C(OCC[18F])C1C2CCC(CC1c1cccc(/C=C\I)c1)N2` (configuration not stated) gave a Drug uptake of 3.58.

Tested on: not listed separately
Assay: Ratio of drug uptake in occipital lobe to cerebellum in anesthetized cynomolgus monkey after 175 mins postinjection
Type: ADME, organism-based, Macaca fascicularis
Settings: in vivo
`O=C(OCC[18F])C1C2CCC(CC1c1cccc(/C=C\I)c1)N2` (configuration not stated) gave a Ratio of 1.

Tested on: not listed separately
Assay: Ratio of drug uptake in putamen to cerebellum in anesthetized cynomolgus monkey after 35 mins postinjection
Type: ADME, organism-based, Macaca fascicularis
Settings: in vivo
Work on `O=C(OCC[18F])C1C2CCC(CC1c1cccc(/C=C\I)c1)N2` (configuration not stated) yielded a Ratio of 1.1.

Tested on: Thalamus
Assay: Drug uptake in anesthetized cynomolgus monkey brain thalamus after 22.5 mins postinjection
Type: ADME, organism-based, Macaca fascicularis
Set-up: unit not given here
Settings: in vivo, 0.375 h
With `O=C(OCC[18F])C1C2CCC(CC1c1cccc(/C=C\I)c1)N2` (configuration not stated) the Drug uptake was 3.88.

Tested on: not listed separately
Assay: Ratio of drug uptake in pons to cerebellum in anesthetized cynomolgus monkey after 225 mins postinjection
Type: ADME, organism-based, Macaca fascicularis
Settings: in vivo, 3.75 h
For `O=C(OCC[18F])C1C2CCC(CC1c1cccc(/C=C\I)c1)N2` (configuration not stated), the Ratio was 1.6.

Tested on: Thalamus
Assay: Drug uptake in anesthetized cynomolgus monkey brain thalamus after 95 mins postinjection
Type: ADME, organism-based, Macaca fascicularis
Set-up: unit not given here
Settings: in vivo
`O=C(OCC[18F])C1C2CCC(CC1c1cccc(/C=C\I)c1)N2` (configuration not stated) gave a Drug uptake of 3.91.

Tested on: not listed separately
Assay: Ratio of drug uptake in thalamus to cerebellum in anesthetized cynomolgus monkey after 9.5 mins postinjection
Type: ADME, organism-based, Macaca fascicularis
Settings: in vivo
For `O=C(OCC[18F])C1C2CCC(CC1c1cccc(/C=C\I)c1)N2` (configuration not stated), the Ratio was 0.9.

Tested on: Caudate
Assay: Drug uptake in anesthetized cynomolgus monkey brain caudate after 65 mins postinjection
Type: ADME, organism-based, Macaca fascicularis, Caudate nucleus
Settings: in vivo
`O=C(OCC[18F])C1C2CCC(CC1c1cccc(/C=C\I)c1)N2` (configuration not stated) showed a Drug uptake of 3.67.

Tested on: Midbrain
Assay: Drug uptake in anesthetized cynomolgus monkey brain midbrain after 27.5 mins postinjection
Type: ADME, organism-based, Macaca fascicularis
Set-up: unit not given here
Settings: in vivo
In the case of `O=C(OCC[18F])C1C2CCC(CC1c1cccc(/C=C\I)c1)N2` (configuration not stated), the Drug uptake is reported as 4.71.

Tested on: not listed separately
Assay: Ratio of drug uptake in occipital lobe to cerebellum in anesthetized cynomolgus monkey after 18.5 mins postinjection
Type: ADME, organism-based, Macaca fascicularis
Settings: in vivo
Work on `O=C(OCC[18F])C1C2CCC(CC1c1cccc(/C=C\I)c1)N2` (configuration not stated) yielded a Ratio of 0.7.

Tested on: Midbrain
Assay: Drug uptake in anesthetized cynomolgus monkey brain midbrain after 155 mins postinjection
Type: ADME, organism-based, Macaca fascicularis
Settings: in vivo
`O=C(OCC[18F])C1C2CCC(CC1c1cccc(/C=C\I)c1)N2` (configuration not stated) gave a Drug uptake of 3.66.

Tested on: Thalamus
Assay: Drug uptake in anesthetized cynomolgus monkey brain thalamus after 18.5 mins postinjection
Type: ADME, organism-based, Macaca fascicularis
Set-up: unit not given here
Settings: in vivo
With `O=C(OCC[18F])C1C2CCC(CC1c1cccc(/C=C\I)c1)N2` (configuration not stated) the Drug uptake was 3.7.

Tested on: Thalamus
Assay: Drug uptake in anesthetized cynomolgus monkey brain thalamus after 135 mins postinjection
Type: ADME, organism-based, Macaca fascicularis
Set-up: unit not given here
Settings: in vivo, 2.25 h
In the case of `O=C(OCC[18F])C1C2CCC(CC1c1cccc(/C=C\I)c1)N2` (configuration not stated), the Drug uptake is reported as 3.33.

Tested on: not listed separately
Assay: Ratio of drug uptake in midbrain to cerebellum in anesthetized cynomolgus monkey after 2.5 mins postinjection
Type: ADME, organism-based, Macaca fascicularis
Settings: in vivo
With `O=C(OCC[18F])C1C2CCC(CC1c1cccc(/C=C\I)c1)N2` (configuration not stated) the Ratio was 1.2.

Tested on: Putamen
Assay: Drug uptake in anesthetized cynomolgus monkey brain putamen after 55 mins postinjection
Type: ADME, organism-based, Macaca fascicularis
Set-up: unit not given here
Settings: in vivo
Compound `O=C(OCC[18F])C1C2CCC(CC1c1cccc(/C=C\I)c1)N2` (configuration not stated) has a Drug uptake of 4.37.

Tested on: not listed separately
Assay: Ratio of drug uptake in caudate to cerebellum in anesthetized cynomolgus monkey after 95 mins postinjection
Type: ADME, organism-based, Macaca fascicularis
Settings: in vivo
`O=C(OCC[18F])C1C2CCC(CC1c1cccc(/C=C\I)c1)N2` (configuration not stated) gave a Ratio of 1.3.

Tested on: not listed separately
Assay: Ratio of drug uptake in putamen to cerebellum in anesthetized cynomolgus monkey after 9.5 mins postinjection
Type: ADME, organism-based, Macaca fascicularis
Settings: in vivo
For `O=C(OCC[18F])C1C2CCC(CC1c1cccc(/C=C\I)c1)N2` (configuration not stated), the Ratio was 0.9.

Tested on: not listed separately
Assay: Ratio of drug uptake in medulla to cerebellum in anesthetized cynomolgus monkey after 165 mins postinjection
Type: ADME, organism-based, Macaca fascicularis
Settings: in vivo, 2.75 h
`O=C(OCC[18F])C1C2CCC(CC1c1cccc(/C=C\I)c1)N2` (configuration not stated) gave a Ratio of 1.7.

Tested on: not listed separately
Assay: Drug uptake in anesthetized cynomolgus monkey brain occipital lobe after 125 mins postinjection
Type: ADME, organism-based, Macaca fascicularis
Settings: in vivo
For `O=C(OCC[18F])C1C2CCC(CC1c1cccc(/C=C\I)c1)N2` (configuration not stated), the Drug uptake was 1.97.

Tested on: Midbrain
Assay: Drug uptake in anesthetized cynomolgus monkey brain midbrain after 65 mins postinjection
Type: ADME, organism-based, Macaca fascicularis
Set-up: unit not given here
Settings: in vivo
With `O=C(OCC[18F])C1C2CCC(CC1c1cccc(/C=C\I)c1)N2` (configuration not stated) the Drug uptake was 4.91.

Tested on: Putamen
Assay: Drug uptake in anesthetized cynomolgus monkey brain putamen after 105 mins postinjection
Type: ADME, organism-based, Macaca fascicularis
Set-up: unit not given here
Settings: in vivo, 1.75 h
With `O=C(OCC[18F])C1C2CCC(CC1c1cccc(/C=C\I)c1)N2` (configuration not stated) the Drug uptake was 3.88.

Tested on: Pons
Assay: Drug uptake in anesthetized cynomolgus monkey brain pons after 155 mins postinjection
Type: ADME, organism-based, Macaca fascicularis
Settings: in vivo
Compound `O=C(OCC[18F])C1C2CCC(CC1c1cccc(/C=C\I)c1)N2` (configuration not stated) has a Drug uptake of 2.5.

Tested on: Medulla
Assay: Drug uptake in anesthetized cynomolgus monkey brain medulla after 115 mins postinjection
Type: ADME, organism-based, Macaca fascicularis
Settings: in vivo
In the case of `O=C(OCC[18F])C1C2CCC(CC1c1cccc(/C=C\I)c1)N2` (configuration not stated), the Drug uptake is reported as 3.43.

Tested on: not listed separately
Assay: Drug uptake in anesthetized cynomolgus monkey brain cerebellum after 175 mins postinjection
Type: ADME, organism-based, Macaca fascicularis
Settings: in vivo
Work on `O=C(OCC[18F])C1C2CCC(CC1c1cccc(/C=C\I)c1)N2` (configuration not stated) yielded a Drug uptake of 1.57.

Tested on: Medulla
Assay: Drug uptake in anesthetized cynomolgus monkey brain medulla after 165 mins postinjection
Type: ADME, organism-based, Macaca fascicularis
Settings: in vivo, 2.75 h
For `O=C(OCC[18F])C1C2CCC(CC1c1cccc(/C=C\I)c1)N2` (configuration not stated), the Drug uptake was 2.88.

Tested on: Midbrain
Assay: Drug uptake in anesthetized cynomolgus monkey brain midbrain after 135 mins postinjection
Type: ADME, organism-based, Macaca fascicularis
Settings: in vivo, 2.25 h
Work on `O=C(OCC[18F])C1C2CCC(CC1c1cccc(/C=C\I)c1)N2` (configuration not stated) yielded a Drug uptake of 3.97.

Tested on: not listed separately
Assay: Ratio of drug uptake in occipital lobe to cerebellum in anesthetized cynomolgus monkey after 235 mins postinjection
Type: ADME, organism-based, Macaca fascicularis
Settings: in vivo
With `O=C(OCC[18F])C1C2CCC(CC1c1cccc(/C=C\I)c1)N2` (configuration not stated) the Ratio was 0.9.

Tested on: Thalamus
Assay: Drug uptake in anesthetized cynomolgus monkey brain thalamus after 65 mins postinjection
Type: ADME, organism-based, Macaca fascicularis
Set-up: unit not given here
Settings: in vivo
`O=C(OCC[18F])C1C2CCC(CC1c1cccc(/C=C\I)c1)N2` (configuration not stated) showed a Drug uptake of 4.26.

Tested on: not listed separately
Assay: Ratio of drug uptake in occipital lobe to cerebellum in anesthetized cynomolgus monkey after 0.5 mins postinjection
Type: ADME, organism-based, Macaca fascicularis
Settings: in vivo
With `O=C(OCC[18F])C1C2CCC(CC1c1cccc(/C=C\I)c1)N2` (configuration not stated) the Ratio was 0.8.

Tested on: Caudate
Assay: Drug uptake in anesthetized cynomolgus monkey brain caudate after 27.5 mins postinjection
Type: ADME, organism-based, Macaca fascicularis, Caudate nucleus
Settings: in vivo
For `O=C(OCC[18F])C1C2CCC(CC1c1cccc(/C=C\I)c1)N2` (configuration not stated), the Drug uptake was 3.39.

Tested on: Midbrain
Assay: Drug uptake in anesthetized cynomolgus monkey brain midbrain after 4.5 mins postinjection
Type: ADME, organism-based, Macaca fascicularis
Set-up: unit not given here
Settings: in vivo, 0.075 h
`O=C(OCC[18F])C1C2CCC(CC1c1cccc(/C=C\I)c1)N2` (configuration not stated) gave a Drug uptake of 1.87.

Tested on: Pons
Assay: Drug uptake in anesthetized cynomolgus monkey brain pons after 12.5 mins postinjection
Type: ADME, organism-based, Macaca fascicularis
Settings: in vivo
For `O=C(OCC[18F])C1C2CCC(CC1c1cccc(/C=C\I)c1)N2` (configuration not stated), the Drug uptake was 2.58.

Tested on: Caudate
Assay: Drug uptake in anesthetized cynomolgus monkey brain caudate after 12.5 mins postinjection
Type: ADME, organism-based, Macaca fascicularis, Caudate nucleus
Settings: in vivo
Work on `O=C(OCC[18F])C1C2CCC(CC1c1cccc(/C=C\I)c1)N2` (configuration not stated) yielded a Drug uptake of 2.74.

Tested on: not listed separately
Assay: Ratio of drug uptake in midbrain to cerebellum in anesthetized cynomolgus monkey after 22.5 mins postinjection
Type: ADME, organism-based, Macaca fascicularis
Settings: in vivo, 0.375 h
Work on `O=C(OCC[18F])C1C2CCC(CC1c1cccc(/C=C\I)c1)N2` (configuration not stated) yielded a Ratio of 1.1.

Tested on: Pons
Assay: Drug uptake in anesthetized cynomolgus monkey brain pons after 125 mins postinjection
Type: ADME, organism-based, Macaca fascicularis
Settings: in vivo
Work on `O=C(OCC[18F])C1C2CCC(CC1c1cccc(/C=C\I)c1)N2` (configuration not stated) yielded a Drug uptake of 2.76.

Tested on: Medulla
Assay: Drug uptake in anesthetized cynomolgus monkey brain medulla after 85 mins postinjection
Type: ADME, organism-based, Macaca fascicularis
Settings: in vivo
Work on `O=C(OCC[18F])C1C2CCC(CC1c1cccc(/C=C\I)c1)N2` (configuration not stated) yielded a Drug uptake of 3.75.

Tested on: Caudate
Assay: Drug uptake in anesthetized cynomolgus monkey brain caudate after 125 mins postinjection
Type: ADME, organism-based, Macaca fascicularis, Caudate nucleus
Settings: in vivo
For `O=C(OCC[18F])C1C2CCC(CC1c1cccc(/C=C\I)c1)N2` (configuration not stated), the Drug uptake was 3.

Tested on: not listed separately
Assay: Drug uptake in anesthetized cynomolgus monkey brain cerebellum after 12.5 mins postinjection
Type: ADME, organism-based, Macaca fascicularis
Settings: in vivo
In the case of `O=C(OCC[18F])C1C2CCC(CC1c1cccc(/C=C\I)c1)N2` (configuration not stated), the Drug uptake is reported as 3.71.
